Numbers after ± are expanded uncertainties.
Assays:
[1] = relative permittivity at various frequencies (dimensionless); conditions: 298.2 K; 101.33 kPa; Liquid; Frequency=0.1 MHz
[2] = 298.2 K; 101 kPa; Liquid; Vibrating tube method
[3] = refractive index (Na D-line) (dimensionless); conditions: 298.2 K; 101.33 kPa; Liquid; Standard Abbe refractometry
[4] = refractive index (Na D-line) (dimensionless); xn = mol fraction of the nth substance listed; conditions: 298.2 K, 101 kPa, Liquid, Standard Abbe refractometry
[5] = relative permittivity at various frequencies (dimensionless); xn = mol fraction of the nth substance listed; conditions: 298.2 K, 101.33 kPa, Liquid, Frequency=0.1 MHz, Parallel plate capacitor
[6] = xn = mol fraction of the nth substance listed; conditions: 298.2 K, 101 kPa, Liquid, Vibrating tube method

OCCCCO [1,4-butanediol]
Conditions | mass density [kg/m3] | refractive index | relative permittivity
[1] | – | – | 31.539 ± 0.01
[2] | 1013.45 ± 0.9 | – | –
[3] | – | 1.4447 ± 0.0005 | –

CC(O)CCO (stereo unspecified) [1,3-butanediol] + CCCCC(CC)CO
Conditions | mass density, [6] [kg/m3] | refractive index, [4] | relative permittivity, [5]
x1 = 0.1 | 839.88 ± 0.72 | 1.4295 ± 0.0005 | 8.625 ± 0.028
x1 = 0.25 | 855.62 ± 0.75 | 1.4301 ± 0.0005 | 10.605 ± 0.031
x1 = 0.401 | 875.88 ± 0.78 | 1.431 ± 0.001 | 13.065 ± 0.037
x1 = 0.501 | 891.81 ± 0.82 | 1.4318 ± 0.0005 | 15.056 ± 0.043
x1 = 0.6 | 909.96 ± 0.85 | 1.4329 ± 0.0005 | 17.255 ± 0.048
x1 = 0.649 | 919.85 ± 0.87 | 1.4334 ± 0.0005 | 18.524 ± 0.051
x1 = 0.75 | 939.91 ± 0.91 | 1.4346 ± 0.0005 | 21.039 ± 0.055
x1 = 0.9 | 974.72 ± 0.97 | 1.4367 ± 0.0005 | 25.228 ± 0.062
x1 = 1 | 1001.22 ± 0.87 | 1.4383 ± 0.0005 | 28.692 ± 0.01

OCCCCO [1,4-butanediol] + CCCCC(CC)CO
x1 = 1
Conditions | mass density [kg/m3] | refractive index | relative permittivity
[4] | – | 1.4447 ± 0.0005 | –
[5] | – | – | 31.539 ± 0.01
[6] | 1013.45 ± 0.9 | – | –

CCCCC(CC)CO (stereo unspecified) [2-ethyl-1-hexanol]
Conditions | mass density [kg/m3] | refractive index | relative permittivity
[1] | – | – | 7.611 ± 0.01
[2] | 830.62 ± 0.68 | – | –
[3] | – | 1.4293 ± 0.0005 | –

OCCCCO [1,4-butanediol] + C1COCCO1
Conditions | refractive index, [4] | relative permittivity, [5]
x1 = 0.029 | 1.4207 ± 0.0005 | 2.525 ± 0.026
x1 = 0.098 | 1.422 ± 0.001 | 3.353 ± 0.03
x1 = 0.2 | 1.4243 ± 0.0005 | 4.916 ± 0.035
x1 = 0.293 | 1.4263 ± 0.0005 | 6.656 ± 0.04
x1 = 0.4 | 1.4288 ± 0.0005 | 8.798 ± 0.047
x1 = 0.491 | 1.4311 ± 0.0005 | 11.193 ± 0.058
x1 = 0.6 | 1.434 ± 0.001 | 14.491 ± 0.067
x1 = 0.693 | 1.4363 ± 0.0005 | 17.889 ± 0.075
x1 = 0.8 | 1.4392 ± 0.0005 | 21.914 ± 0.084
x1 = 0.9 | 1.4418 ± 0.0005 | 26.541 ± 0.093

CC(O)C(C)O (stereo unspecified) [2,3-butanediol] + C1COCCO1
Conditions | refractive index, [4] | relative permittivity, [5]
x1 = 0.03 | 1.4205 ± 0.0005 | 2.386 ± 0.016
x1 = 0.096 | 1.4212 ± 0.0005 | 2.798 ± 0.018
x1 = 0.19 | 1.4223 ± 0.0005 | 3.592 ± 0.023
x1 = 0.29 | 1.4235 ± 0.0005 | 4.778 ± 0.027
x1 = 0.38 | 1.4249 ± 0.0005 | 5.985 ± 0.033
x1 = 0.488 | 1.4264 ± 0.0005 | 7.881 ± 0.04
x1 = 0.6 | 1.4281 ± 0.0005 | 10.205 ± 0.045
x1 = 0.69 | 1.4294 ± 0.0005 | 12.277 ± 0.054
x1 = 0.82 | 1.4316 ± 0.0005 | 16.001 ± 0.059
x1 = 0.9 | 1.433 ± 0.001 | 18.397 ± 0.061

CC(O)C(C)O (stereo unspecified) [2,3-butanediol] + CCCCC(CC)CO
x1 = 1
Conditions | mass density [kg/m3] | refractive index | relative permittivity
[4] | – | 1.4348 ± 0.0005 | –
[5] | – | – | 21.282 ± 0.01
[6] | 994.31 ± 0.86 | – | –

CC(O)C(C)O (stereo unspecified) [2,3-butanediol]
Conditions | mass density [kg/m3] | refractive index | relative permittivity
[1] | – | – | 21.282 ± 0.01
[2] | 994.31 ± 0.86 | – | –
[3] | – | 1.4348 ± 0.0005 | –

CC(O)CCO (stereo unspecified) [1,3-butanediol]
Conditions | mass density [kg/m3] | refractive index | relative permittivity
[1] | – | – | 28.692 ± 0.01
[2] | 1001.22 ± 0.87 | – | –
[3] | – | 1.4383 ± 0.0005 | –

CC(O)CCO (stereo unspecified) [1,3-butanediol] + C1COCCO1
Conditions | refractive index, [4] | relative permittivity, [5]
x1 = 0.029 | 1.4206 ± 0.0005 | 2.488 ± 0.024
x1 = 0.098 | 1.4217 ± 0.0005 | 3.231 ± 0.027
x1 = 0.2 | 1.4233 ± 0.0005 | 4.644 ± 0.033
x1 = 0.293 | 1.4251 ± 0.0005 | 6.316 ± 0.039
x1 = 0.4 | 1.4265 ± 0.0005 | 8.425 ± 0.043
x1 = 0.491 | 1.4282 ± 0.0005 | 10.465 ± 0.052
x1 = 0.6 | 1.4301 ± 0.0005 | 13.528 ± 0.063
x1 = 0.693 | 1.4319 ± 0.0005 | 16.725 ± 0.071
x1 = 0.8 | 1.4343 ± 0.0005 | 20.583 ± 0.074
x1 = 0.9 | 1.4362 ± 0.0005 | 24.335 ± 0.076

CCCCC(CC)CO (stereo unspecified) [2-ethyl-1-hexanol] + CC(O)C(C)O
Conditions | mass density, [6] [kg/m3] | refractive index, [4] | relative permittivity, [5]
x2 = 0 | 830.62 ± 0.68 | 1.4293 ± 0.0005 | 7.611 ± 0.01
x2 = 0.1 | 837.79 ± 0.72 | 1.4294 ± 0.0005 | 8.197 ± 0.018
x2 = 0.25 | 854.38 ± 0.75 | 1.4297 ± 0.0005 | 9.478 ± 0.022
x2 = 0.401 | 874.23 ± 0.78 | 1.4301 ± 0.0005 | 11.075 ± 0.025
x2 = 0.499 | 890.64 ± 0.81 | 1.4308 ± 0.0005 | 12.36 ± 0.03
x2 = 0.55 | 897.94 ± 0.83 | 1.4311 ± 0.0005 | 13.125 ± 0.032
x2 = 0.65 | 916.49 ± 0.86 | 1.4318 ± 0.0005 | 14.659 ± 0.034
x2 = 0.75 | 934.5 ± 0.89 | 1.4324 ± 0.0005 | 16.407 ± 0.038
x2 = 0.898 | 966.52 ± 0.96 | 1.4337 ± 0.0005 | 19.166 ± 0.04

CCCCC(CC)CO (stereo unspecified) [2-ethyl-1-hexanol] + OCCCCO
Conditions | mass density, [6] [kg/m3] | refractive index, [4] | relative permittivity, [5]
x2 = 0.099 | 840.72 ± 0.73 | 1.4299 ± 0.0005 | 8.795 ± 0.031
x2 = 0.25 | 858.3 ± 0.76 | 1.4313 ± 0.0005 | 11.008 ± 0.034
x2 = 0.4 | 881.5 ± 0.8 | 1.4329 ± 0.0005 | 13.706 ± 0.04
x2 = 0.5 | 897.59 ± 0.83 | 1.4343 ± 0.0005 | 15.945 ± 0.048
x2 = 0.6 | 916.55 ± 0.86 | 1.4358 ± 0.0005 | 18.45 ± 0.05
x2 = 0.649 | 926.55 ± 0.89 | 1.4368 ± 0.0005 | 19.741 ± 0.059
x2 = 0.749 | 948.41 ± 0.93 | 1.439 ± 0.0005 | 22.751 ± 0.063
x2 = 0.9 | 984.92 ± 1 | 1.4424 ± 0.0005 | 27.546 ± 0.07

Source: the NIST ThermoML archive (doi:10.1016/j.jct.2010.03.011)
